Legend:
HCT116 PTTG1−/− cells [1] = assay: BrdU incorporation assay; format: cell-based
Method: The BrdU incorporation assay was carried out using a commercial kit. Briefly, culture cells in 96-well microplates in a final volume of 100 ul culture medium per well. After treatment, add 10 ul BrdU labeling solution per well (final concentration: 10 uM BrdU) and incubate for 2-18 h at 37° C. Carefully remove the culture medium and wash cells twice with 250 ul wash medium containing 10% serum per well. Cells fixed and treated with nucleases working solution for 30 min at 37° C. The incorporated BrdU is detected using anti-BrdU-POD, Fab fragments and peroxidase substrate ABTS. The absorbances of the samples are measured at 405 nm against the background control, using a Victor 3 multiwell plate reader.

HCT116 PTTG1−/− cells [2] = assay: Anchorage-dependent colony formation assay; format: cell-based; settings: PTTG1−/− vs WT HCT116 cells
Method: Briefly, 20,000 cells were plated in a six-well culture dish, allowed to attach overnight and treated with depicted drug concentrations. Cells were cultured in standard culture medium containing indicated treatments for twelve days and medium re-freshened every three days. Colonies were stained with 0.5% crystal violet in methanol/acetic acid (3:1) and those composed of >50 cells were counted.

HCT116 WT cells = assay: WST-1 cell proliferation assay; format: cell-based
Method: (§1) FIG. 4 depicts that PTTG1 regulates cell response to Aurora Kinase inhibition, in accordance with an embodiment of the present invention. (A) PTTG1^−/− cell proliferation was attenuated in response to Aurora Kinase A siRNA (mean±S.D., n=3. P<0.05 vs WT). Cells were seeded into 96-well plates, cultured overnight, and then transfected with siRNAs (100 nM). After 72 hours, premixed WST-1 cell proliferation reagent (10 ul) was added to each well. Cells were incubated for a further four hours and shaken thoroughly for one minute before measurement. […] Cells were seeded into 96-well plates, cultured overnight, and then treated with drug as indicated for 48 hours. Viable cells were measured using Premixed WST-1 cell proliferation reagent. (C) Anchorage-dependent colony formation assay was performed as described herein. […] (mean±S.D., n=3. P<0.05 vs WT) (D) Western blot showing that over-expressed PTTG1 rescued PTTG1^−/− sensitivity to Aurora Kinase inhibitor III (12.5 uM) (mean±S.D., n=3. P>0.05 vs WT); PTTG1 knock-down enhanced WT cell sensitivity to Aurora Kinase inhibitor III (12.5 uM) (mean±S.D., n=3. P>0.05 vs PTTG1^−/−). PTTG1^−/−=PTTG1-null or KO cells.
(§2) Cell proliferation was evaluated using WST-1 cell proliferation reagent (obtained from Clontech Laboratories, Inc.; Mountain View, Calif.). Briefly, 90 μl cells were seeded into 96-well plates and cultured overnight, treated with drugs for 48 hours, and 10 μl premixed WST-1 cell proliferation reagent added. Cells were incubated for a further four hours, shaken and absorbance measured at 450 nm using a Victor 3 multiwell plate reader (obtained from PerkinElmer, Inc.; Waltham, Mass.). Cell viability rate was calculated for each well as A450 treated cells/A450 control cells×100% (A450: OD value at 450 nm).

HCT116 PTTG1−/− cells [3] = assay: WST-1 cell proliferation assay; format: cell-based; settings: for effect on the WT versus PTTG1−/− difference in response to doxorubicin: 3 μM inhibitor pre-incubation or siRNA, 0.63 μM doxorubicin; for sensitivity of PTTG1−/− cell growth versus WT (WST-1): PTTG1−/− vs WT HCT116 cells
Method: as §1, §2

Aurora Kinase A [4] = settings: Gadea and Ruderman, 2005; cited from earlier work
Aurora Kinase A [5] = assay: Western blot of siRNA knock down; format: cell-based; settings: WT and PTTG1−/− cells
Method: Protein extracts were resolved by Nupage 4-12% Bis-Tris Gel (obtained from Invitrogen). Samples were electro-blotted onto PVDF membrane (obtained from Invitrogen), and membranes blocked and incubated with primary antibody. Donkey anti-rabbit- or anti-mouse (obtained from GE Healthcare; NJ) antibodies were conjugated to horseradish […] to reveal immunocomplexes by enhanced chemiluminescence (obtained from Thermo Scientific Pierce Protein Research Products).
Aurora Kinase A siRNA (AM51331, Sense: Described herein as SEQ. ID. NO.: 5; Antisense: Described herein as SEQ. ID. NO.: 6) and PTTG1 siRNA (16706, Sense: Described herein as SEQ. ID. NO.: 7; Antisense: Described herein as SEQ. ID. NO.: 8) were purchased from Ambion, Inc. (TX). Transfections were carried out with lipofectamine 2000 according to protocol.

Aurora Kinase A [6] = target: T1, Aurora Kinase A (Homo sapiens, UniProt O14965); assay: Protein microarray screening (Protoarray); format: binding; design: purchased Invitrogen Protoarray nc-v3; settings: biotinylated PTTG1 probe
T1 sequence (O14965 1-403): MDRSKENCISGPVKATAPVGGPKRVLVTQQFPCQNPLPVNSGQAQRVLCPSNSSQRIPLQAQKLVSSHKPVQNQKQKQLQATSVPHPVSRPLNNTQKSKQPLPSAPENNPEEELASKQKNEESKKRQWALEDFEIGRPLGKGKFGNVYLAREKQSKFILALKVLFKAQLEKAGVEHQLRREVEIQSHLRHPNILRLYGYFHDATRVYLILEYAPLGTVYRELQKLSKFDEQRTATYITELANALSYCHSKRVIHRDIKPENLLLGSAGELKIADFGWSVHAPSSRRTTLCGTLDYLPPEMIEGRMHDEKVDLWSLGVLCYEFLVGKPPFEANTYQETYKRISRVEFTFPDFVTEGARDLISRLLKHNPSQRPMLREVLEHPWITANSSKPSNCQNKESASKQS
Method: (§3) FIG. 1 depicts that PTTG1 interacts with Aurora Kinase A, in accordance with an embodiment of the present invention. (A) PTTG1 was biotin-labeled and incubated with the protein microarray. Attached biotinylated PTTG1 was probed with Streptavidin-Alexa Fluor 647 conjugate. […] (B) Aurora Kinase A antibody was used to co-immunoprecipitate PTTG1, and PTTG1 antibody used to co-immunoprecipitate Aurora Kinase A respectively.
(§4) The human Protoarray nc3.0 study was performed as described by the manufacturer (obtained from Invitrogen Corporation; Carlsbad, Calif.). PTTG1 protein was biotinylated using biotin-XX sulfosuccinimidyl ester, purified by gel filtration, and assessed by Western blot. Appropriate protein aliquots were used to probe a protein microarray (Protoarray nc-v3; obtained from Invitrogen) and attached biotinylate PTTG1 was probed with Streptavidin-Alexa Fluor 647 conjugate. Arrays were scanned by GenePix 4000B (obtained from Molecular Devices Corporation; Sunnyvale, Calif.), and images analyzed using ProtoArray Prospector (Invitrogen).

Aurora Kinase A [7] = target: T1, Aurora Kinase A; assay: In vitro kinase activity assay (histone H3 Ser10 phosphorylation); format: biochemical; design: purchased Cell Signaling; settings: PTTG1 0.5, 1, 2 μg
Excerpt: FIG. 3 depicts that PTTG1 attenuates Aurora Kinase A function, in accordance with an embodiment of the present invention. (A) Over-expressed PTTG1 caused abnormal spindle formation as evidenced by unevenly distributed PTTG1-GFP and Aurora Kinase A (white arrows). (B) Western blot showing that over-expressed PTTG1 suppressed Aurora Kinase A T288 auto-phosphorylation and histone H3 Ser10 phosphorylation in HCT116 cells compared to controls. (C) Over-expressed PTTG1 repressed histone H3 Seri 0 phosphorylation as shown by immunofluorescence (white arrows). Scale bar=5 μm. (D) Degradation of mitotic proteins. HCT116 cells were synchronized with 400 ng/ml nocodazole for twelve hours and mitotic cells collected by shake-off, washed and cultured in fresh medium at 37° C. to allow progression of G2/M, and cells harvested at the indicated time points. […] (E) In vitro kinase assay. Aurora Kinase A, histone H3 and increasing PTTG1 or GST-His levels (0.5, 1, 2 μg) were brought to a 30 μl volume reaction system as described herein. After incubations at 37° C. for 20 minutes, reactions were halted and analyzed by Western blotting using histone H3 ser10 antibody. […]
Assays were performed using a modified Aurora kinase A assay kit obtained from Cell Signaling. […] Proteins were separated by standard SDS-PAGE and analyzed by Western blotting.

ribosomal protein S10 = target: T2, ribosomal protein S10 (Homo sapiens, UniProt P46783); assay: Protein microarray screening (Protoarray); format: binding; settings: biotinylated PTTG1 probe
T2 construct: purchased Invitrogen Protoarray nc-v3
Method: as §3, §4

In the case of `CC(=O)N[C@@H](CS)C(=O)O` [N-acetyl cysteine (NAC), N-acetyl cysteine], the “effect of ROS quencher on PTTG1−/− cell sensitivity to ROS-generating agents” value (HCT116 PTTG1−/− cells [1]) is reported as “rescue PTTG1−/− cells sensitivity”.

With `OO` [H2O2] the “sensitivity of PTTG1−/− cells to ROS-generating agents” value (HCT116 PTTG1−/− cells [1]) was “enhanced sensitivity”.

In the case of `O=C(Nc1cccc(Nc2nccc(Nc3cccc(C(F)(F)F)c3)n2)c1)C1CC1` [Aurora Kinase Inhibitor III, Cyclopropanecarboxylic acid-(3-(4-(3-trifluoromethyl-phenylamino)-pyrimidin-2-ylamino)-phenyl)-amide], the “sensitivity of PTTG1−/− cells versus WT (colony formation)” value (HCT116 PTTG1−/− cells [2]) is reported as “more sensitive”, the viability at 12.5 µM (HCT116 WT cells; Homo sapiens, HCT-116, WT cells, 12.5 uM for 48 h, read-out: cells remaining viable) is reported as 73% and the “effect on the WT versus PTTG1−/− difference in response to doxorubicin” value (HCT116 PTTG1−/− cells [3]) is reported as “abolished the different response”. The viability at 12.5 µM (HCT116 PTTG1−/− cells [3]; Homo sapiens, HCT-116, PTTG1-null HCT116 cells, 12.5 uM for 48 h, read-out: cells remaining viable) was 56% and the “sensitivity of PTTG1−/− cell growth versus WT (WST-1)” value (HCT116 PTTG1−/− cells [3]) was “more sensitive”.

With `S=C=NCCc1ccccc1` [PEITC, phenethyl isothiocyanate] the “sensitivity of PTTG1−/− cells to ROS-generating agents” value (HCT116 PTTG1−/− cells [1]) was “enhanced sensitivity”.

In the case of `COc1cc2ncnc(Nc3ccc(NC(=O)c4ccccc4)cc3)c2cc1OC` [Aurora Kinase Inhibitor II, 4-(4′-Benzamidoanilino)-6,7-dimethoxyquinazoline], the “sensitivity of PTTG1−/− cell growth versus WT (WST-1)” value (HCT116 PTTG1−/− cells [3]) is reported as “more susceptible than WT cells”.

In the case of `COc1cc2c(Nc3ccc(NC(=O)c4ccccc4)cc3)ncnc2cc1OCCCN1CCOCC1` [ZM 447439], the “effect on chromosome condensation and spindle” value (Aurora Kinase A [4]) is given as “retards progression of chromosome condensation, leading to a disorganized spindle”.

In the case of “Aurora Kinase A siRNA: siRNA AM51331, SEQ. ID. NO.: 5 and 6, purchased from Ambion (chain 1 GGCAACCAGUGUACCUCAU; chain 2 AUGAGGUACACUGGUUGCC; chemistry not given here; listed as Homo sapiens)”, the “Aurora Kinase A expression” value (Aurora Kinase A [5]) is reported as “efficiently knocked down Aurora Kinase A expression”, the “effect on the WT versus PTTG1−/− difference in response to doxorubicin” value (HCT116 PTTG1−/− cells [3]) is reported as “abolished the differences” and the “sensitivity of PTTG1−/− cell growth versus WT (WST-1)” value (HCT116 PTTG1−/− cells [3]) is reported as “attenuated”.

In the case of “PTTG1 siRNA: siRNA 16706, SEQ. ID. NO.: 7 and 8, purchased from Ambion (chain 1 GUCUGUAAAGACCAAGGGA; chain 2 UCCCUUGGUCUUUACAGAC; listed as RNA, chemistry not given here; listed as Homo sapiens)”, the “effect of PTTG1 knock down on sensitivity to Aurora Kinase inhibitor III” value (HCT116 WT cells; WT HCT116 cells, inhibitor III 12.5 uM) is reported as “increased HCT116 cell sensitivity”.

For `Nc1nc(Nc2ccc(S(N)(=O)=O)cc2)nn1C(=O)c1c(F)cccc1F` [Aurora Kinase/CDK inhibitor, 4-(5-Amino-1-(2,6-difluorobenzoyl)-1H-[1,2,4]triazol-3-ylamino)-benzenesulfonamide], the “sensitivity of PTTG1−/− cell growth versus WT (WST-1)” value (HCT116 PTTG1−/− cells [3]) was “more susceptible than WT cells”.

B1: PTTG1: pituitary tumor transforming gene protein (securin); His-PTTG1 expressed in insect cells, biotinylated for the array (protein, listed as Homo sapiens)
chain: MATLIYVDKENGEPGTRVVAKDGLKLGSGPSIKALDGRSQVSTPRFGKTFDAPPALPKATRKALGTVNRATEKSVKTKGPLKQKQPSFSAKKMTEKTVKAKSSVPASDDAYPEIEKFFPFNPLDFESFDLPEEHQIAHLPLSGVPLMILDEERELEKLFQLGPPSPVKMPSPPWESNLLQSPSSILSTLDVELPPVCCDIDI
modifications: His tag, biotinylated
notes: pituitary tumor transforming gene protein (securin); His-PTTG1 expressed in insect cells, biotinylated for the array
For B1, the Z-score of interaction (Aurora Kinase A [6]) was 4.90, the “Aurora Kinase A phosphorylation of histone H3” value (Aurora Kinase A [7]) was “dose-dependently inhibits” and the Z-score of interaction (ribosomal protein S10) was 3.34.
